The experiment relates to L1210 leukemia ip in BDF1 mice, survival T/C. Kind of experiment: NCI In Vivo Anticancer Drug Screen. Data for tumor model L1210 Leukemia (intraperitoneal) in B6D2F1 (BDF1) mice. As to conditions: endpoint: mean survival time, higher = longer survival. In a few lines: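 Survival endpoint. Drug-treated group vs vehicle group, expressed as T divided by C. Tumor passaged by transplantation.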

Setting [1] is: dose: 100.0 mg/kg/injection, schedule: Q04DX003 (ip), vehicle: Klucel (hydroxypropylcellulose) (HPC).
[2] abbreviates: dose: 200.0 mg/kg/injection, schedule: Q04DX003 (ip), vehicle: Klucel (hydroxypropylcellulose) (HPC).
Where [3] appears, read: dose: 12.5 mg/kg/injection, schedule: Q01DX009 (ip), vehicle: saline.
Where [4] appears, read: dose: 25.0 mg/kg/injection, schedule: Q01DX009 (ip), vehicle: saline.
The mark [5] stands for this setting: dose: 50.0 mg/kg/injection, schedule: Q01DX009 (ip), vehicle: saline.
[6] abbreviates: dose: 75.0 mg/kg/injection, schedule: Q01DX009 (ip), vehicle: saline.
The mark [7] stands for this setting: dose: 100.0 mg/kg/injection, schedule: Q01DX009 (ip), vehicle: saline with Tween-80.
The mark [8] stands for this setting: dose: 50.0 mg/kg/injection, schedule: Q01DX009 (ip), vehicle: Klucel (hydroxypropylcellulose) (HPC).
Setting [9] is: dose: 100.0 mg/kg/injection, schedule: Q01DX009 (ip), vehicle: Klucel (hydroxypropylcellulose) (HPC).
The mark [10] stands for this setting: dose: 200.0 mg/kg/injection, schedule: Q01DX009 (ip), vehicle: Klucel (hydroxypropylcellulose) (HPC).
Setting [11] is: dose: 100.0 mg/kg/injection, schedule: Q01DX001 (ip), vehicle: saline.
Where [12] appears, read: dose: 200.0 mg/kg/injection, schedule: Q01DX001 (ip), vehicle: saline.
Where [13] appears, read: dose: 400.0 mg/kg/injection, schedule: Q01DX001 (ip), vehicle: saline.
[14] abbreviates: dose: 100.0 mg/kg/injection, schedule: Q04DX002 (ip), vehicle: saline with Tween-80.
The mark [15] stands for this setting: dose: 200.0 mg/kg/injection, schedule: Q04DX002 (ip), vehicle: saline with Tween-80.
The mark [16] stands for this setting: dose: 400.0 mg/kg/injection, schedule: Q04DX002 (ip), vehicle: saline with Tween-80.

Values joined by “and” are separate entries in the source; they are usually repeats but may differ in a detail not shown here. Equal values may be shown once. Inconclusive results and toxic doses are left out.

For the molecule `O=C(c1ccc(Br)cc1)C(O)O`, the T/C runs as follows: (dose: 100.0 mg/kg/injection, schedule: Q01DX009 (ip), vehicle: saline) 102 % of control; (dose: 100.0 mg/kg/injection, schedule: Q04DX003 (ip), vehicle: saline) 121 % of control; (dose: 200.0 mg/kg/injection, schedule: Q01DX009 (ip), vehicle: saline) 97 % of control; (dose: 200.0 mg/kg/injection, schedule: Q04DX003 (ip), vehicle: saline) 101 % of control; (dose: 400.0 mg/kg/injection, schedule: Q01DX009 (ip), vehicle: saline) 102 % of control; (dose: 400.0 mg/kg/injection, schedule: Q04DX003 (ip), vehicle: saline) 106 % of control.
On to `CC(C)(C#N)C(C)(C)c1cnc2ccccc2c1`, for which the T/C by setting is: under setting [1], 96 % of control; under setting [2], 101 % of control.
As for `Cc1[nH]nc(C(N)=O)c1N=NN(C)C`, the T/C was 108 % of control under setting [3]; 121 % of control (dose: 25.0 mg/kg/injection, schedule: Q01DX001 (ip), vehicle: saline); 124 % of control under setting [4]; 183 % of control under setting [5]; 112 % of control and 124 % of control (dose: 75.0 mg/kg/injection, schedule: Q01DX001 (ip), vehicle: saline); 204 % of control under setting [6]. Moreover, the T/C (dose: 150.0 mg/kg/injection, schedule: Q01DX001 (ip), vehicle: saline) was 104 % of control and 216 % of control; the T/C (dose: 150.0 mg/kg/injection, schedule: Q01DX009 (ip), vehicle: saline) is 186 % of control.
Consider `COC(=O)C1(C(=O)OC)C(c2ccccc2)C1(C(=O)OC)C(=O)OC`, for which the T/C by setting is: (dose: 12.5 mg/kg/injection, schedule: Q01DX009 (ip), vehicle: saline with Tween-80) 94 % of control; (dose: 25.0 mg/kg/injection, schedule: Q01DX009 (ip), vehicle: saline with Tween-80) 98 % of control; (dose: 50.0 mg/kg/injection, schedule: Q01DX009 (ip), vehicle: saline with Tween-80) 94 % of control; under setting [7], 91 % of control.
Regarding `CCc1ccccc1NC(=O)c1cccc(C(=O)Nc2ccccc2CC)c1`, the T/C reads like this: under setting [8], 98 % of control; under setting [9], 94 % of control; under setting [1], 91 % of control; under setting [10], 110 % of control; under setting [2], 88 % of control.
In the case of `CN(C)CCCn1c2c(c3ccccc31)CCCCCC2`, the T/C is, setting by setting: (dose: 6.25 mg/kg/injection, schedule: Q01DX009 (ip), vehicle: saline) 96 % of control; under setting [3], 93 % of control; under setting [4], 98 % of control; under setting [5], 102 % of control.
In the case of `O=C(Nc1cccc(C(F)(F)F)c1)N1CCN(c2ccccc2)CC1`, the T/C was 103 % of control under setting [9]; 96 % of control under setting [10]; 106 % of control (dose: 400.0 mg/kg/injection, schedule: Q01DX009 (ip), vehicle: Klucel (hydroxypropylcellulose) (HPC)).
For the molecule `COc1ccccc1CN1CCCN(Cc2ccccc2OC)C1c1cc(Cl)cc(Cl)c1O`, the T/C runs as follows: (dose: 50.0 mg/kg/injection, schedule: Q01DX001 (ip), vehicle: saline) 98 % of control; under setting [11], 111 % of control; under setting [12], 104 % of control; under setting [13], 98 % of control.
`S=C(c1ccccc1Cl)N1CCOCC1`: the T/C is 104 % of control under setting [11], 102 % of control under setting [12] and 98 % of control under setting [13].
For the molecule `COc1ccc(C(CC(=O)c2ccccc2)Sc2ccccc2N)cc1OC` (stereo not drawn), the T/C is, setting by setting: under setting [8], 97 % of control; (dose: 100.0 mg/kg/injection, schedule: Q01DX005 (ip), vehicle: Klucel (hydroxypropylcellulose) (HPC)) 101 % of control; under setting [9], 94 % of control; under setting [14], 98 % of control; (dose: 200.0 mg/kg/injection, schedule: Q01DX005 (ip), vehicle: Klucel (hydroxypropylcellulose) (HPC)) 108 % of control; under setting [10], 94 % of control. In addition, the T/C runs as follows: under setting [15], 106 % of control; under setting [16], 113 % of control.
As for `CCN(CC)CC(O)COc1ccccc1C` (stereo not drawn), the T/C is 101 % of control (dose: 5.0 mg/kg/injection, schedule: Q01DX001 (ip), vehicle: saline); 101 % of control (dose: 10.0 mg/kg/injection, schedule: Q01DX001 (ip), vehicle: saline); 104 % of control (dose: 20.0 mg/kg/injection, schedule: Q01DX001 (ip), vehicle: saline); 104 % of control (dose: 40.0 mg/kg/injection, schedule: Q01DX001 (ip), vehicle: saline); 101 % of control (dose: 80.0 mg/kg/injection, schedule: Q01DX001 (ip), vehicle: saline); 102 % of control under setting [11].
For the molecule `CN(C)C(=O)c1ccc(NCc2cnc3nc(N)nc(N)c3n2)cc1`, the T/C is, setting by setting: (dose: 20.0 mg/kg/injection, schedule: Q01DX009 (ip), vehicle: Klucel (hydroxypropylcellulose) (HPC)) 97 % of control; (dose: 40.0 mg/kg/injection, schedule: Q01DX009 (ip), vehicle: Klucel (hydroxypropylcellulose) (HPC)) 96 % of control; (dose: 80.0 mg/kg/injection, schedule: Q01DX009 (ip), vehicle: Klucel (hydroxypropylcellulose) (HPC)) 97 % of control.
On to `O=C(Nc1ccc2c(c1)Cc1cc(Br)ccc1-2)C(F)(F)F`, for which the T/C is, setting by setting: under setting [7], 97 % of control; (dose: 200.0 mg/kg/injection, schedule: Q01DX009 (ip), vehicle: saline with Tween-80) 92 % of control; (dose: 400.0 mg/kg/injection, schedule: Q01DX009 (ip), vehicle: saline with Tween-80) 94 % of control.
Consider `OCn1nnc2ccccc21`, for which the T/C under setting [14] is 103 % of control, the T/C under setting [15] is 90 % of control and the T/C under setting [16] is 106 % of control.
`CC(N)C12CC3CC(CC(C3)C1)C2` (stereo not drawn): the T/C under setting [6] was 94 % of control.

These data come from PubChem BioAssay AID248 (DTP/NCI, 2004).
